Where two headings read alike, the source gives them in different places.
Experiments:
HeLa cells [1] = assay: Cell viability assessment with resazurin assay (Method A); assay type: cell-based
Experimental: (§1) The synthesized lipids were tested in term of in vitro transfection efficacy and toxicity on HeLa cells. In order to perform the mentioned biological tests, appropriate LNPs had to be formulated from the synthesized lipids. The formulation technique was different in Method A and B. The particle size, polydispersity index (PDI) and zeta potential of resulting LNPs were determined by means of Dynamic Light Scattering technique (DLS). Prior to biological testing the encapsulation efficiency (EE) of the loaded LNPs was determined by using RiboGreen RNA assay. In case of Method A Luc mRNA while in case of Method B GFP mRNA was transfected into the cells. In parallel with the transfection experiments, toxicity of the investigated LNPs was determined, in case of Method A resazurin assay while in case of Method B MTT assay was used. Additionally, the toxicity of the lipids was investigated on HepG2 cells and IC50 values were determined.
This protocol is used to determine the metabolic activity of cells as a measure for cell viability after exposure to potentially toxic substances. Resazurin is converted in mitochondria by reduction to resorufin, which has a much higher fluorescence at ˜600 nm compared to unconverted resazurin. A lower amount/percentage of conversion is correlated with reduced cellular metabolism and indirectly to cellular death and toxicity. Care must be taken with interpretation of the read-out, as 50% reduction in resazurin conversion may mean 50% reduction of cellular metabolism of 100% alive cells, or 50% of cells dead, and any combination in between.
• 1. Prepare 0.25 mg/ml stock solution resazurin in fresh cell culture medium. Resazurin is auto-reducing over time in solution, especially in medium, and fresh stocks should be prepared every 2-3 days. Stocks should be stored at 4° C. and protected from light. For HeLa cells, DMEM/F12 with 10% FCS is used. • 2. Dilute stock solution 10× in fresh cell culture medium to 0.025 mg/ml->ready for application on cells. For HeLa cells, DMEM/F12 with 10% FCS is used. • 3. Collect 96-well plate and replace cell-culture spent medium with 100 μl per well resazurin solution. Add some resazurin solution for background measurement in wells not containing cells. • 4. Incubate for 50 minutes in incubator at 37° C., 5% CO2, 95% RH. • 5. Transfer resazurin solution to a fresh 96- or 384-well plate. • 6. Measure in plate reader using 540/25 nm (excitation) and 610/40 nm (emission) using standard settings (PTM low/OD-1.0). • 7. Subtract the average background measurement from all samples. Set the average of the negative controls (well receiving OptiMEM only during transfection) to 100% and express all values as percentage of the control activity. Typically, at lower levels of treatment, elevation of metabolic activity is shown, whereas for toxic substances, at toxic concentrations sigmoidal curves can be obtained, with lower activity indicating higher toxicity.

HeLa cells [2] = assay: Transfection efficiency with Luciferase (SecNLuc) mRNA, Nano-Glo assay (Method A); assay type: cell-based; settings: Luc mRNA, 24 h, luminescence; for Transfection 10 ng mRNA: 10 ng mRNA/well; for Transfection 50 ng mRNA: 50 ng mRNA/well; for Transfection 100 ng mRNA: 100 ng mRNA/well
Experimental: as §1
• 1. Prepare mRNA solution by adding 100 ng mRNA (SecNLuc, #P009024, RiboPro) to 5 μl Opti-MEM • multiply by number of wells, include different concentrations and add 10% extra • a standard set-up we use is 100 ng-50 ng-10 ng mRNA/well in triplicate, which would need […] mRNA (includes 10% extra)
• 2. (If applicable) Prepare different concentrations in Opti-MEM (for instance 100/50/10 ng). • 3. Add 10 μl to each well and mix carefully by pipetting. • 4. Mix by swirling the plate horizontally at modest speed. Reverse in direction 3 times. • 5. Incubate for 24 hours (incubator).
This protocol is applied to measure luciferase activity for secreted NanoLuc and is based on the protocol by Promega (Nano-Glo® Luciferase Assay System #N1110-1150). The protocol is designed for a 384-wells plate, but volumes can be changed accordingly for other plates.
• 1. Plate cells (HeLa) in 96-well plate, grow until 80% confluent and transfect with SecNanoLuc mRNA and incubate for the desired period (24 h). • 2. After incubation, the translated protein is accumulated in the medium. Transfer medium to a new plate or tubes. • 3. Transfer 12 μl of each sample to a black-walled, clear-bottom 384-well plate • Black-walled plates are important to prevent shine-through of luminescence from other wells; alternatively, multiple wells between samples can be left empty. • 4. Set-up plate reader • 5. Prepare the desired amount of Nano-Glo® Luciferase Assay Reagent by combining one volume of Nano-Glo® Luciferase Assay Substrate with 50 volumes of Nano-Glo® Luciferase Assay Buffer: • a. composition: 100 mM MES pH 6; 1 mM EDTA; […]; 150 mM KCl; 1 mM DTT; 35 mM Thiourea; • b. briefly spin tubes containing substrate in a microcentrifuge before use. • 6. Add and mix (by pipetting) 12 μl Nano-Glo® Luciferase Assay Reagent per well • Wait approximately 3 minutes before measuring luminescence. […] Measure luminescence in plate reader using standard protocol luciferase (this includes mixing sample in plate reader)

SMILES | Cell Viability % (Average metabolic rate over all doses, Resazurin) (HeLa cells [1]; human) | Transfection 10 ng mRNA (HeLa cells [2]) | Transfection 50 ng mRNA (HeLa cells [2]) | Transfection 100 ng mRNA (HeLa cells [2]) | Cell Viability % (Average metabolic rate over all doses, Resazurin) (HeLa cells [1])
CCCCC/C=C\C/C=C\CCCCCCCCO[Si](C)(C)OC(CCCCCCC/C=C\C/C=C\CCCCC)OCCCN(C)C (stereo not shown) [Example 80, (17Z,20Z)-5-((8Z,11Z)-heptadeca-8,11-dien-1-yl)-N,N,7,7-tetramethyl-4,6,8-trioxa-7-silahexacosa-17,20-dien-1-amine] | 99% | 1.90E+01 | 1.25E+02 | 5.41E+02 | 
CCCCC/C=C\C/C=C\CCCCCCCCOC(CCCCCCC/C=C\C/C=C\CCCCC)O[Si](C)(C)OCCCCCCN1CCCCC1 (stereo not shown) [Example 57, 1-((20Z,23Z)-10-((8Z,11Z)-heptadeca-8,11-dien-1-yl)-8,8-dimethyl-7,9,11-trioxa-8-silanonacosa-20,23-dien-1-yl)piperidine] | 99% | 9.82E+04 | 1.48E+06 | 5.16E+06 | 
CCCCCCCCCCCCCCCCOC(CCCCCCCCCCCCCCC)O[Si](C)(C)OCCCCCCN(CCO)CCO (stereo not shown) [Example 49, 3-(2-hydroxyethyl)-11,11-dimethyl-13-pentadecyl-10,12,14-trioxa-3-aza-11-silatriacontan-1-ol] | 93% | 1.35E+05 | 6.74E+05 | 1.20E+06 | 
CCCCC/C=C\C/C=C\CCCCCCCCOC(CCCCCCC/C=C\C/C=C\CCCCC)O[Si](C)(C)OCCCCCCN(C)CCO (stereo not shown) [Example 56, (23Z,26Z)-13-((8Z,11Z)-heptadeca-8,11-dien-1-yl)-3,11,11-trimethyl-10,12,14-trioxa-3-aza-11-siladotriaconta-23,26-dien-1-ol] | 93% | 3.00E+00 | 5.63E+01 | 6.90E+01 | 
CCCCCCCCC(CCCCCC)C(=O)OCCCCCCN(CCCCO)CCCCCCOC(=O)C(CCCCCC)CCCCCCCC (stereo not shown) [ALC-0315, reference compound] |  | 2.38E+06 | 1.22E+07 | 9.34E+06 | 97%
CCCCC/C=C\C/C=C\CCCCCCCCOC(CCCCCCC/C=C\C/C=C\CCCCC)O[Si](C)(C)OCCCCCCN(C)CC(O)CO (stereo not shown) [Example 59, (24Z,27Z)-14-((8Z,11Z)-heptadeca-8,11-dien-1-yl)-4,12,12-trimethyl-11,13,15-trioxa-4-aza-12-silatritriaconta-24,27-diene-1,2-diol] | 90% | 9.07E+03 | 2.41E+05 | 5.66E+05 | 
CCCCC/C=C\C/C=C\CCCCCCCCOC(CCCCCCC/C=C\C/C=C\CCCCC)O[Si](C)(C)OCCCCCCN1CCOCC1 (stereo not shown) [Example 55, 4-((20Z,23Z)-10-((8Z,11Z)-heptadeca-8,11-dien-1-yl)-8,8-dimethyl-7,9,11-trioxa-8-silanonacosa-20,23-dien-1-yl)morpholine] | 91% | 1.32E+06 | 7.68E+06 | 1.03E+07 | 
CCCCCCCC/C=C\CCCCCCCCOC(=O)C(C)(C)CC(OCCCCCCCC/C=C\CCCCCCCC)O[Si](C)(C)OCCCCCCN(CCO)CCN(CCO)CCCCCCO[Si](C)(C)OC(CC(C)(C)C(=O)OCCCCCCCC/C=C\CCCCCCCC)OCCCCCCCC/C=C\CCCCCCCC (stereo not shown) [Example 96, di((Z)-octadec-9-en-1-yl) 14,17-bis(2-hydroxyethyl)-2,2,6,6,25,25,29,29-octamethyl-4,27-bis(((Z)-octadec-9-en-1-yl)oxy)-5,7,24,26-tetraoxa-14,17-diaza-6,25-disilatriacontanedioate] | 104% | 3.94E+02 | 2.15E+03 | 2.94E+03 | 
CCCCC/C=C\C/C=C\CCCCCCCCOC(CC[C@@H](C)C1CCC2C3CCC4C[C@H](OC)CC[C@]4(C)C3CC[C@@]21C)O[Si](C)(C)OCCCCCCN(CCO)CCO (stereo partly drawn) [Example 52, (23Z,26Z)-3-(2-hydroxyethyl)-13-((3R)-3-((3R,10S,13R)-3-methoxy-10,13-dimethylhexadecahydro-1H-cyclopenta[a]phenanthren-17-yl)butyl)-11,11-dimethyl-10,12,14-trioxa-3-aza-11-siladotriaconta-23,26-dien-1-ol] | 95% | 1.02E+05 | 1.65E+06 | 9.16E+06 | 
CCCCCCCC/C=C\CCCCCCCC(OCCCCCCCCCCCCCCCC)O[Si](C)(C)OCCCCCCN(CCO)CCO (stereo not shown) [Example 42, (Z)-13-(heptadec-8-en-1-yl)-3-(2-hydroxyethyl)-11,11-dimethyl-10,12,14-trioxa-3-aza-11-silatriacontan-1-ol] | 98% | 6.16E+04 | 1.32E+06 | 5.53E+06 | 
CCCCCCCC/C=C\CCCCCCCCOC(=O)C(C)(C)CC(OCCCCCCCC/C=C\CCCCCCCC)O[Si](C)(C)OCCCCCCN(C)CC(O)CO (stereo not shown) [Example 92, (Z)-octadec-9-en-1-yl 1,2-dihydroxy-4,12,12,16,16-pentamethyl-14-(((Z)-octadec-9-en-1-yl)oxy)-11,13-dioxa-4-aza-12-silaheptadecan-17-oate] | 111% | 3.35E+03 | 3.94E+04 | 1.65E+05 | 
CCCCCCCC/C=C\CCCCCCCC(OCCCCCCCCCCCCCCC(C)C)O[Si](C)(C)OCCCCCCN(CCO)CCO (stereo not shown) [Example 76, (Z)-13-(heptadec-8-en-1-yl)-3-(2-hydroxyethyl)-11,11,29-trimethyl-10,12,14-trioxa-3-aza-11-silatriacontan-1-ol] | 110% | 3.30E+03 | 6.71E+04 | 3.34E+05 | 
CCCCCCCC/C=C\CCCCCCCCOC(=O)C(C)(C)CC(OCCCCCCCC/C=C\CCCCCCCC)O[Si](C)(C)OCCCCCCN(CCO)CCO (stereo not shown) [Example 84, (Z)-octadec-9-en-1-yl 1-hydroxy-3-(2-hydroxyethyl)-11,11,15,15-tetramethyl-13-(((Z)-octadec-9-en-1-yl)oxy)-10,12-dioxa-3-aza-11-silahexadecan-16-oate] | 114% | 3.08E+03 | 5.69E+04 | 2.00E+05 | 
